Measurements from patent US7982038B2 (priority 2003, dated 2011).

Molecular target: α7 nAChR subtype (Rattus norvegicus, UniProt Q05941)
Type: binding
Conditions: read-out: KD (saturation curve, one site model)

α7 nAChR subtype, sequence (Q05941 23-502 limits assumed): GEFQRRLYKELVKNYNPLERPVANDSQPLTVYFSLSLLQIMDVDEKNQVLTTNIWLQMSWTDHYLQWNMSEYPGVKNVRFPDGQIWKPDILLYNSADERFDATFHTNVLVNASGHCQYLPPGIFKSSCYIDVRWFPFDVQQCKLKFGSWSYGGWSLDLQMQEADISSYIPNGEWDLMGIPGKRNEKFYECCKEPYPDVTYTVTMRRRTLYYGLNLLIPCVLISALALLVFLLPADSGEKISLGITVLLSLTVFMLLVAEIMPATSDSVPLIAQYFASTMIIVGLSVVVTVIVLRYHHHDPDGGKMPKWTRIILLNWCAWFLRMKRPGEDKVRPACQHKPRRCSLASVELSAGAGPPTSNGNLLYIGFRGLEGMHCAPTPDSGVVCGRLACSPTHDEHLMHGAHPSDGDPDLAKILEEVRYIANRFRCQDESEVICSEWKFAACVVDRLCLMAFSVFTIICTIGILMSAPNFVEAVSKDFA

**Q.** How did the Kd turn out when [^125I]-α-Bungarotoxin [^125I-α-BTX] was run?
**A.** The Kd was 1.67 nM.
